Values joined by “and” are separate entries in the source; they are usually repeats but may differ in a detail not shown here. Equal values may be shown once.
Settings: meniscus disappearance in a closed cell

CC(C)C [2-methylpropane]
Settings | mass density
390.4 K, Liquid | 388.9 kg/m3
391.4 K, Gas | 90.6 kg/m3
393.73 K, Gas | 98.2 kg/m3
394.98 K, Gas | 101.1 kg/m3
397.49 K, Liquid | 358.7 kg/m3
398.81 K, Gas | 114.2 kg/m3
400.69 K, Liquid | 341.9 kg/m3
402.34 K, Liquid | 330.3 kg/m3
404.54 K, Gas | 142 kg/m3
405.22 K, Liquid | 308.1 kg/m3
406.17 K, Gas | 160.4 kg/m3
406.71 K, Liquid | 289.4 kg/m3
406.96 K, Liquid | 284.3 kg/m3
407.03 K, Gas | 173.9 kg/m3
407.21 K, Gas | 179.1 kg/m3
407.52 K, Liquid | 271 kg/m3
407.65 K, Gas | 192.9 kg/m3
407.75 K, Liquid | 244.3 kg/m3
407.76 K, Gas | 202.3 kg/m3
407.79 K, Gas | 219.3 kg/m3 and 225.4 kg/m3
407.8 K, Liquid | 229.4 kg/m3
